Values quoted from earlier work, collected in patent US20250303004A1, “RADIOPHARMACEUTICAL COMPOSITIONS FOR LOW TOXICITY ACTINIUM IN TARGETED RADIONUCLIDE THERAPY” (Curium US LLC, priority 2021, published 2025).

Columns and labels:
[1] = tested on: patient with advanced mCRPC; details: cited from earlier work
patients = details: cited from earlier work
[2] = tested on: kidneys and lesion of a mCRPC patient; details: 8.1 MBq, cited from earlier work
[3] = subgroup of 11 patients with prior ^177Lu-PSMA treatment
[4] = subgroup with prior ^177Lu-PSMA radioligand therapy

Structure (SMILES): O=C(O)CC[C@H](NC(=O)N[C@@H](CCCCNC(=O)CCCCCCC(=O)NCCCC[C@@H](NC(=O)[C@@H](Cc1ccccc1)NC(=O)[C@@H](Cc1ccc(O)c(I)c1)NC(=O)CC[C@H](C(=O)O)N1CCN(CC(=O)O)CCN(CC(=O)O)CCN(CC(=O)O)CC1)C(=O)O)C(=O)O)C(=O)O.[225Ac+3] [^225Ac-PSMA-I&T, (3S,7S,26R,29R,32R,37R)-29-benzyl-32-(4-hydroxy-3-iodobenzyl)-5,13,20,28,31,34-hexaoxo-37-(4,7,10-tris(carboxymethyl)-1,4,7,10-tetraazacyclododecan-1-yl)-4,6,12,21,27,30,33-heptaazaheptatriacontane-1,3,7,26,37-pentacarboxylic acid; Actinium-225 (III)]
- main TAT-related side effect ([1]; already preexisting after 10 cycles of RLT): grade 2 xerostomia
- response ([1]; two cycles after failure of ^177Lu-PSMA-617 (10 cycles), FIG. 6): encouraging response
- hematological side effects ([1]; two cycles): No TAT-related grade 3/4 hematological side effects were noted
- acute toxicity during hospitalization (patients; 14 patients, 34 cycles, median 7.8 MBq): No acute toxicity was observed
- hematologic toxicity (patients; 14 patients, FIG. 13): mild
- patients with grade 1 nephrotoxicity (patients; 14 patients, FIG. 13): one
- biochemical responses compared with ^225Ac-PSMA-617 TAT (patients; first clinical data): highly comparable biochemical responses
- patients with grade 3 anemia after TAT (patients; of 14 patients, 2 with grade 2 anemia at baseline): 3 patients
- patients reporting no xerostomia at all (patients; of 14 patients): One
- patients with PSA decline of any amount (patients; of 14 patients): 11 patients
- patients with best PSA response (PSA decline ≥50%) (patients; of 14 patients): 7 patients
- patients with grade 3 leukopenia (patients; of 14 patients): 1 patients
- patients with newly diagnosed grade 1 or 2 xerostomia after TAT (patients; of 14 patients): 5 patients
- patients with no PSA decline at any time (patients; of 14 patients): Three
- patients with preexisting xerostomia after ^177Lu-PSMA showing no worsening after TAT (patients; of 14 patients): Eight
- patients with PSA decline of at least 50% (patients; [3]): 5 patients
- patients with any PSA decline (patients; [3]): 8 patients
- PSA decline ≥50% (patients; [4]): 45%
- any PSA decline (patients; [4]): 73%
- absorbed dose, left kidney ([2]; SPECT/CT at 24 h p. i.): 0.18 Sv(RBE=5)/MBq
- absorbed dose, right kidney ([2]; SPECT/CT at 24 h p. i.): 0.17 Sv(RBE=5)/MBq
- absorbed dose, small lesion in the right hip [2]: 0.26 Sv(RBE=5)/MBq
